Source: US7410955B2, “Therapeutic use of agonist ligands specific to G2A receptor” (Biosynergen, Inc., priority 2002, dated 2008)

Experiments:
[1] = system: myeloperoxidase (MPO) in pulmonary tissues; assay: LPS-induced (intratracheal) acute lung injury model, lung MPO activity; assay type: in vivo, ICR mice
Protocol: The activity of myeloperoxidase (MPO), an indicator of neutrophils, in pulmonary tissues was determined according to the methods of Goldblum et al (J. Appl. physiol. 59: 1978, 1985) and Parey et al (J. Immunol. 160:1007, 1998). First, mice were sacrificed and pulmonary tissues were obtained therefrom. The tissues had been homogenized in potassium phosphate buffer, and centrifuged to obtain pellets. These pellets were sonicated in potassium phosphate buffer containing 0.5% hexadecyltrimethylammonium bromide (HTAB), and incubated at 60° C. for 120 min. After centrifugation, supernatants were obtained. 0.02 ml of supernatants was mixed with potassium phosphate buffer solution (0.18 ml) containing o-dianisidine dihydrochloride of 0.167 mg/ml and 0.0005% hydrogen peroxide. Accordingly, the absorbance of the mixture was determined at a wavelength of 460 nm.
Mice were intratracheally administered with LPS to cause direct acute lung injury, thereby inducing acute respiratory distress syndrome.
ICR mice (25-30 g in body weight; MJ Ltd.) were divided into five groups of 7 mice (Sham group, experimental groups-1, -2, -3 and a control group). Mice of each group were anesthetized with pentobarbital, their skins were dissected in a length of 1 cm to expose their bronchia. […]

CLP-induced Sepsis model = assay: CLP-induced sepsis model; assay type: in vivo, ICR mice
Protocol: After ICR mice (25-30 g in body weight; MJ Ltd.) had been anesthetized with pentobarbital, right abdominal sites of the mice were dissected in a length of 1 cm to expose their cecum, and sites below the ileocecal valve were ligated. And then, after 4˜6 punctures had been created on the cecum with 21-gauge needle, the abdomen was sutured again to cause peritonitis, thereby inducing Sepsis.
After the peritoneal cavity of mice had been exposed, it was washed with sterilized saline (2 ml). The resultant solution was diluted with HBSS (Sigma Chemical Co., USA) in a ratio of 1/1000, and then 10 μl of each diluted solution was spread on Trypticase Soy agar (BBL, Becton Dickinson Co., USA) plates. After overnight incubation at 37° C., colony forming unit (CFU) was measured.
7 mice were administered with 1-stearoyl LPC (Sigma Chemical Co., USA) dissolved in 1% BSA solution containing no fatty acid in an amount of 10 mg/kg by subcutaneous injection 2 and 14 hours after the CLP surgery, respectively (experimental group). The remaining 7 mice were administered with 1% BSA solution containing no fatty acid of the same amount as above in the same manner (control group). The numbers of intraperitoneal E. coli cells in the ICR mice of experimental and control groups were measured in accordance with Reference Example 3, 24 hours after the CLP surgery.
Each 10 ICR mice were intraperitoneally administered with 1-stearoyl LPC (Sigma Chemical Co., USA) dissolved in 1% BSA solution containing no fatty acid in amounts of 5, 10, and 20 mg/kg, respectively, four times at intervals of 12 hours, 2 hours after the CLP surgery (experimental group-1, -2 and -3). The remaining 10 ICR mice were administered only with 1% BSA solution containing no fatty acid (control group). And then, the survival rates of mice in experimental- and control groups were investigated over the lapse of time.
10 mice for the experimental group were intraperitoneally administered with 1-stearoyl LPC (Sigma Chemical Co., USA) dissolved in 1% BSA solution containing no fatty acid in an amount of 10 mg/kg, four times at intervals of 12 hours, 10 hours after the CLP surgery. The remaining 10 mice for the control group were administered only with 1% BSA solution containing no fatty acid. Thereafter, the survival rates of ICR mice in experimental- and control groups were investigated over the lapse of time.
CLP-induced Sepsis model mice were subcutaneously injected with SPC, instead of 1-stearoyl LPC, in dosages of 3 mg/kg and 30 mg/kg four times at intervals of 12 hours, 2 hours after the CLP surgery, respectively. The survival rates of mice were investigated.

## CCCCCCCCCCCCCCCCCC(=O)OCC(O)COP(=O)([O-])OCC[N+](C)(C)C (centres unmarked) [1-stearoyl LPC, 1-stearoyl (18:0) lysophosphatidylcholine]
[1]; 20 mg/kg subcutaneous (experimental group-3), p<0.01
  activity of MPO in pulmonary tissues: the most excellent effects
[1]; 5, 10 and 20 mg/kg subcutaneous, 2 and 14 hours after intratracheal LPS, 24 hours after LPS, vs control group
  activity of MPO in pulmonary tissues: suppressed in a concentration-dependent manner
CLP-induced Sepsis model; 10 mg/kg intraperitoneal, four times at intervals of 12 hours, starting 10 hours after CLP surgery
  therapeutic effect (survival rate) when septicemia already developed: excellent therapeutic effect
CLP-induced Sepsis model; 10 mg/kg subcutaneous, 2 and 14 hours after CLP surgery, 24 hours after surgery, P<0.01
  number of intraperitoneal E. coli cells: remarkably decreased
CLP-induced Sepsis model; 5, 10 and 20 mg/kg intraperitoneal, four times at intervals of 12 hours, starting 2 hours after CLP surgery
  survival rate: much higher than that of the mice in control group
